Laboratory results as given in patent US12516016B2, “GPX4 inhibitors, pharmaceutical compositions thereof, and their use for treating GPX4-mediated diseases” (EUBULUS BIOTHERAPEUTICS (HONG KONG) LIMITED, priority 2020, dated 2026).

These compounds were tested on hepatocellular carcinoma cell line Hub-7 (assay: Cell proliferation assay (CELL-TITER GLO cell viability)). Conditions: 24 h, Hub-7 cells, 24 h incubation, read-out: Inhibition of Cell Proliferation EC50.
Assay type: cell-based
Method: The activity of a test compound was determined in a cell proliferation assay using the hepatocellular carcinoma cell line […]. Cells (4,000 cells per well) were seeded in a 96-well tissue culture plate. After incubated overnight, a test compound was added at predetermined concentrations, starting with 10 μM and followed by 3-fold serial dilution. After the cells were incubated for 24 h, cell viability was determined using a CELL-TITER GLO® assay. The CELL-TITER GLO® reagent (50 μL) was added to each well and the luminescence was measured by a multimode microplate reader after a brief period of shaking. EC50 values were determined for the test compound. The results are summarized in Table 1, wherein A represents a value no greater than 100 nM, B represents a value greater than 100 nM but no greater than 500 nM, C represents a value greater than 500 nM but no greater than 2 μM, D represents a value greater than 2 μM but no greater than 10 μM; and E represents a value greater than 10 μM.

Structure (SMILES)	EC50
C#CC(=O)N(c1ccc(OC)cc1OC)C(C(=O)NCC(=O)OCC)c1cccs1 (centres unmarked) [A190, Ethyl 2-(2-(N-(2,4-dimethoxyphenyl)propiolamido)-2-(thiophen-2-yl)acetamido)-acetate]	500 to 2000 nM
CC(=O)N(c1ccc2c(cnn2C)c1)C1(C(=O)NCc2ccccc2)CCCOC1 (centres unmarked) [D2, N-Benzyl-3-(N-(1-methyl-1H-indazol-5-yl)acetamido)tetrahydro-2H-pyran-3-carboxamide]	> 10000 nM
C#CC(=O)N(c1cccc(C(N)=O)c1)C(C(=O)NCc1ccccc1)c1cccc(N)c1 (centres unmarked) [A47, 3-(N-(1-(3-Aminophenyl)-2-(benzylamino)-2-oxoethyl)propiolamido)-benzamide]	> 10000 nM
C#CC(=O)N(c1cccc(Cl)c1)C1(C(=O)NCC(=O)N2CCCC(CO)C2)CCOCC1 (centres unmarked) [A194, 4-(N-(3-Chlorophenyl)propiolamido)-N-(2-(3-(hydroxymethyl)piperidin-1-yl)-2-oxoethyl)tetrahydro-2H-pyran-4-carboxamide]	2000 to 10000 nM
COc1ccc(N(C(=O)CCl)C(C(=O)NCCc2ccccc2)c2ccc(NC(=O)CO)cc2)cc1Cl (centres unmarked) [C4, 2-chloro-N-(3-chloro-4-methoxyphenyl)-N-(1-(4-(2-hydroxyacetamido)phenyl)-2-oxo-2-(phenethylamino)ethyl)acetamide]	500 to 2000 nM
C#CC(=O)N(c1cccc(NS(C)(=O)=O)c1)C(C(=O)NCc1ccccc1)c1cccc(N)c1 (centres unmarked) [A42, N-(1-(3-Aminophenyl)-2-(benzylamino)-2-oxoethyl)-N-(3-(methylsulfonamido)-phenyl)propiolamide]	2000 to 10000 nM
O=C(CCl)N(c1ccc2c(c1)OCO2)C1(C(=O)NCc2ccccc2)CCOCC1 [C19, 4-(N-(Benzo[d][1,3]dioxol-5-yl)-2-chloroacetamido)-N-benzyltetrahydro-2H-pyran-4-carboxamide]	2000 to 10000 nM
C#CC(=O)N(c1ccc2[nH]ncc2c1)C1(C(=O)NCc2ccccc2)CCOCC1 [A150, 4-(N-(1H-Indazol-5-yl)propiolamido)-N-benzyltetrahydro-2H-pyran-4-carboxamide]	100 to 500 nM
O=C(C#CCO)N(c1cc(Cl)ccc1Cl)C1(C(=O)NCc2ccccc2)CCOCC1 [A130, N-Benzyl-4-(N-(2,5-dichlorophenyl)-4-hydroxybut-2-ynamido)tetrahydro-2H-pyran-4-carboxamide]	> 10000 nM
CC(Cl)C(=O)N(c1ccc2c(cnn2C)c1)C1(C(=O)NCc2ccccc2)CCOCC1 (centres unmarked) [C24, N-Benzyl-4-(2-chloro-N-(1-methyl-1H-indazol-5-yl)propanamido)tetrahydro-2H-pyran-4-carboxamide]	> 10000 nM
CC(C)N(C(=O)CCl)C(C(=O)NCCc1ccccc1)c1cccs1 (centres unmarked) [C1, 2-chloro-N-isopropyl-N-(2-oxo-2-(phenethylamino)-1-(thiophen-2-yl)ethyl)acetamide]	> 10000 nM
C#CC(=O)N(c1ccc(NS(C)(=O)=O)cc1)C(C(=O)NCc1ccccc1)c1ccc(N)cc1 (centres unmarked) [A71, N-(1-(4-Aminophenyl)-2-(benzylamino)-2-oxoethyl)-N-(4-(methylsulfonamido)-phenyl)propiolamide]	2000 to 10000 nM
CC(=O)Nc1cccc(N(C(=O)CCl)C(C(=O)NCCc2ccccc2)c2ccc([N+](=O)[O-])cc2)c1 (centres unmarked) [C11, N-(3-Acetamidophenyl)-2-chloro-N-(1-(4-nitrophenyl)-2-oxo-2-(phenethyl-amino)ethyl)acetamide]	2000 to 10000 nM
C#CC(=O)N(c1ccc(N)cc1)C(C(=O)NC(C)(C)C)c1cccc(N)c1 (centres unmarked) [A22, N-(4-Aminophenyl)-N-(1-(3-aminophenyl)-2-(tert-butylamino)-2-oxoethyl)-propiolamide]	2000 to 10000 nM
C#CC(=O)N(c1ccn(C)c(=O)c1)C(C(=O)NCc1ccccc1)c1ccccc1 (centres unmarked) [A102, N-(2-(Benzylamino)-2-oxo-1-phenylethyl)-N-(1-methyl-2-oxo-1,2-dihydropyridin-4-yl)propiolamide]	2000 to 10000 nM

Second part, the compound after the results:

EC50	Structure (SMILES)
≤ 100 nM	C#CC(=O)N(c1cccc(Cl)c1)C(C(=O)NCC1CCOCC1)c1ccccc1 (centres unmarked) [A180, N-(3-Chlorophenyl)-N-(2-oxo-1-phenyl-2-(((tetrahydro-2H-pyran-4-yl)methyl)-amino)ethyl)propiolamide]
100 to 500 nM	C#CC(=O)N(c1ccc2c(c1)OCO2)C1(C(=O)NCc2ccccc2)CCOCC1 [A151, 4-(N-(Benzo[d][1,3]dioxol-5-yl)propiolamido)-N-benzyltetrahydro-2H-pyran-4-carboxamide]
≤ 100 nM	C#CC(=O)N(c1ccc2c(cnn2C)c1)C1(C(=O)NCc2ccccc2)CCOCC1 [A162, N-Benzyl-4-(N-(1-methyl-1H-indazol-5-yl)propiolamido)tetrahydro-2H-pyran-4-carboxamide]
≤ 100 nM	C#CC(=O)N(c1cccc(Cl)c1)C1(C(=O)NCc2ccccc2)CCC(=O)CC1 [A175, N-Benzyl-1-(N-(3-chlorophenyl)propiolamido)-4-oxocyclohexane-1-carboxamide]
≤ 100 nM	C#CC(=O)N(c1cccc2c1CCC2=O)C(C(=O)NCc1ccccc1)c1ccccc1 (centres unmarked) [A89, N-(2-(Benzylamino)-2-oxo-1-phenylethyl)-N-(1-oxo-2,3-dihydro-1H-inden-4-yl)propiolamide]
≤ 100 nM	C#CC(=O)N(c1cccc(Cl)c1)C(C(=O)NCc1ccc(F)cc1)c1ccccc1 (centres unmarked) [A115, N-(3-Chlorophenyl)-N-(2-((4-fluorobenzyl)amino)-2-oxo-1-phenylethyl)-propiolamide]
≤ 100 nM	C#CC(=O)N(c1cccc(Cl)c1)C1(C(=O)NCc2ccccc2)CCC(F)(F)CC1 [A103, N-Benzyl-1-(N-(3-chlorophenyl)propiolamido)-4,4-difluorocyclohexane-carboxamide]
100 to 500 nM	C#CC(=O)N(c1cccc(Cl)c1)C(C(=O)NCc1ccccc1)c1cccc(OCC(=O)OC)c1 (centres unmarked) [A83, Methyl 2-(3-(2-(benzylamino)-1-(N-(3-chlorophenyl)propiolamido)-2-oxoethyl)-phenoxy)acetate]
100 to 500 nM	C#CC(=O)N(c1cccc(F)c1)C(C(=O)NCc1ccccc1)c1cccc(N)c1 (centres unmarked) [A43, N-(1-(3-Aminophenyl)-2-(benzylamino)-2-oxoethyl)-N-(3-fluorophenyl)-propiolamide]
100 to 500 nM	C#CC(=O)N(c1cccc(Cl)c1)C(C(=O)NCc1ccccc1)C1CC1 (centres unmarked) [A72, N-(2-(benzylamino)-1-cyclopropyl-2-oxoethyl)-N-(3-chlorophenyl)propiolamide]
≤ 100 nM	C#CC(=O)N(c1ccc2c(cnn2C)c1)C(C(=O)NCc1ccccc1)c1ccccc1 (centres unmarked) [A107, N-(2-(Benzylamino)-2-oxo-1-phenylethyl)-N-(1-methyl-1H-indazol-5-yl)-propiolamide]
≤ 100 nM	C#CC(=O)N(c1ccc(OC)cc1OC)C1(C(=O)NCc2ccccc2)CCOCC1 [A157, N-Benzyl-4-(N-(2,4-dimethoxyphenyl)propiolamido)tetrahydro-2H-pyran-4-carboxamide]
≤ 100 nM	C#CC(=O)N(c1ccc(OC)c(Cl)c1)C(C(=O)NCc1ccccc1)c1ccccc1 (centres unmarked) [A93, N-(2-(Benzylamino)-2-oxo-1-phenylethyl)-N-(3-chloro-4-methoxyphenyl)-propiolamide]
≤ 100 nM	C#CC(=O)N(c1cc(Cl)ccc1F)C(C(=O)NCc1ccccc1)c1cccc(N)c1 (centres unmarked) [A40, N-(1-(3-Aminophenyl)-2-(benzylamino)-2-oxoethyl)-N-(5-chloro-2-fluorophenyl)-propiolamide]
